# In ChEMBL document CHEMBL1154854, “Synthesis and antioxidant properties of enone core based dendrimers with carbazole as surface group” (Eur J Med Chem, 2010):
# Activity calls are given as the source filed them. The rule behind the calls is not given here.
# Assays:
# [1] = tested on: Radical scavenging activity; test: Antioxidant activity assessed as DPPH radical scavenging activity after 30 mins by spectrometric assay method; assay type: functional
# [2] = tested on: Radical scavenging activity; test: Antioxidant activity assessed as DPPH radical scavenging activity at 20 to 1000 ug/mL after 30 mins by spectrometric assay method; assay type: functional
SMILES,IC50 [1] [µg/mL],Activity [2],Activity [1]
O=C1/C(=C/c2ccc(OCc3cc(OCc4ccc(-n5c6ccccc6c6ccccc65)cc4)cc(OCc4ccc(-n5c6ccccc6c6ccccc65)cc4)c3)cc2)CCC/C1=C\c1ccc(OCc2cc(OCc3ccc(-n4c5ccccc5c5ccccc54)cc3)cc(OCc3ccc(-n4c5ccccc5c5ccccc54)cc3)c2)cc1,,,Dose-dependent effect
COc1ccc(O)c(C(C)(C)C)c1.COc1ccc(O)cc1C(C)(C)C [BUTYLATED HYDROXYANISOLE],29,,

# The next lines start with results.
IC50 [1] [µg/mL],SMILES,Activity [2],Activity [1]
48,O=C1/C(=C/c2ccc(OCc3cc(OCc4cc(OCc5ccc(-n6c7ccccc7c7ccccc76)cc5)cc(OCc5ccc(-n6c7ccccc7c7ccccc76)cc5)c4)cc(OCc4cc(OCc5ccc(-n6c7ccccc7c7ccccc76)cc5)cc(OCc5ccc(-n6c7ccccc7c7ccccc76)cc5)c4)c3)cc2)CCC/C1=C\c1ccc(OCc2cc(OCc3cc(OCc4ccc(-n5c6ccccc6c6ccccc65)cc4)cc(OCc4ccc(-n5c6ccccc6c6ccccc65)cc4)c3)cc(OCc3cc(OCc4ccc(-n5c6ccccc6c6ccccc65)cc4)cc(OCc4ccc(-n5c6ccccc6c6ccccc65)cc4)c3)c2)cc1,Active,
25,Cc1c(C)c2c(c(C)c1O)CC[C@@](C)(CCC[C@H](C)CCC[C@H](C)CCCC(C)C)O2 [ALPHA-TOCOPHEROL],,
48,O=C1O[C@H]([C@@H](O)CO)C(O)=C1O [ASCORBIC ACID],,
